One molecule from patent publication US4960787A, “Certain pyrrolyl-substituted hydroxamic acid derivatives” (Ciba-Geigy Corporation, priority 1989, dated 1990) can be followed below.

pIC50: −log10 of the molar value.

For experiment [1], the system named is rat pleurisy model of inflammation. Description: carrageenin-induced pleurisy model, exudate volume. In kind it is in vivo. The settings on record: 10 mg/kg p.o. for two days at -1, 6, 24 and 45 hours relative to carrageenin injection, 48 hours after injection.
Experiment [2] deals with 5-lipoxygenase. Description: ex vivo inhibition of A-23187-stimulated LTB4 formation in whole blood after oral administration. The settings on record: dose of about 3 mg/kg p.o. to the dog. As for the experimental part:
Furthermore, the inhibition of 5-lipoxygenase is determined after oral or i.v. administration to rats or dogs by measuring ex vivo in whole blood the decrease of A-23187-stimulated LTB4 formation as compared to non-treated control animals.
(§1) Illustrative of the invention, the compound of example 1a, (E)-3-(1-cycloheptyl-1H-pyrrol-3-yl)-N-hydroxy-N-methyl-2-propenamide, inhibits the formation of 5-HETE [(5S)-5-hydroxy-6,8,11,14-eicosatetraenoic acid] and leukotriene B4 (LTB4, 5,12-dihydroxy-6,8,10,14-eicosatetraenoic acid) in A-23187-stimulated guinea pig polymorphonuclear leukocytes, e.g. at an IC50 of about 0.1 micromolar (1×10^-7 M).

The target in experiment [3] is T1, 5-lipoxygenase (Cavia porcellus, UniProt A0A286X958).
T1 construct: A-23187-stimulated guinea pig polymorphonuclear leukocytes; endogenous in cells; host or cells: guinea pig polymorphonuclear leukocytes
T1 sequence (A0A286X958 1-674): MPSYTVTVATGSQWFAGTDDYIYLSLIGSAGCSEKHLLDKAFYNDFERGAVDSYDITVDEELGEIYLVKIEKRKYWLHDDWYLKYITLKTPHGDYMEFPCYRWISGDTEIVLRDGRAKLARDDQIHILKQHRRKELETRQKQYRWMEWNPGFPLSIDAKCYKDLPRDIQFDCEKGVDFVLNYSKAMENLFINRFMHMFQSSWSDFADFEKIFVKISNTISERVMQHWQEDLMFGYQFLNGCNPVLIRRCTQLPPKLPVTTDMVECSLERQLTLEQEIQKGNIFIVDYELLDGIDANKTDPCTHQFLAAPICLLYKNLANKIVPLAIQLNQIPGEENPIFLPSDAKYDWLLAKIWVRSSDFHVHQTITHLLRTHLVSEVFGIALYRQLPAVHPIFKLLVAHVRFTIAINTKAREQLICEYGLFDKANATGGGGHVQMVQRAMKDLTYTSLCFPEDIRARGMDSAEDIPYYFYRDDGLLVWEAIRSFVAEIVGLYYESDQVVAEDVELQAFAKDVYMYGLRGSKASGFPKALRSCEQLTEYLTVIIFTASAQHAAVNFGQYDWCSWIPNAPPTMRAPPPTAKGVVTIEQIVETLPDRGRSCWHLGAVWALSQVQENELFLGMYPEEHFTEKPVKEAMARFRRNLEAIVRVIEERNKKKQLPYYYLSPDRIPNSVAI
Description: inhibition of 5-HETE and LTB4 synthesis in A-23187-stimulated guinea pig polymorphonuclear leukocytes. In kind it is cell-based. The settings on record: also printed as 1×10^-7 M, read-out: IC50, inhibition of the formation of 5-HETE and leukotriene B4 (LTB4). The method, then:
5-Lipoxygenase inhibition is determined e.g. by measuring the percent inhibition of the synthesis of 5-HETE [(5S)-5-hydroxy-6,8,11,14-eicosa-tetraenoic acid] and leukotriene B4 (LTB4, 5,12-dihydroxy-6,8,10,14-eicosatetraenoic acid) in A-23187-stimulated guinea pig polymorphonuclear leukocytes, essentially according to radiometric thin-layer chromatographic assays described by Walker and Dawson (J. Pharm. Pharmacol. 31: 778, 1979) and Jakschik and Lee (Nature 287: 51, 1980) used to measure the formation of 5-HETE and LTB4 -like products from ^14 C-arachidonic acid. IC50 values are determined graphically as the concentration of test compound at which the synthesis of 5-HETE and LTB4 -like products is reduced to 50% of their respective control values.
as §1

`CN(O)C(=O)/C=C/c1ccn(C2CCCCCC2)c1` [example 1a, (E)-3-(1-cycloheptyl-1H-pyrrol-3-yl)-N-hydroxy-N-methyl-2-propenamide]: the “inhibition of exudate volume” value in experiment [1] is “causes inhibition of exudate volume”. Further, the “inhibition of LTB4 formation as determined ex vivo” value in experiment [2] worked out at 50%. The pIC50 (usually the IC50 on a negative log10 scale, so that one unit is a factor of ten) in experiment [3] is around 7.00.
